Experimental data published in patent publication US8242275B2, “Bicyclic pyrazole compounds as antibacterial agents” (Janssen Pharmaceutica NV, priority 2005, dated 2012).
Values after ≈ are worked out from the molar mass of the structure shown.

What was measured:
[1] = system: E. coli KL-16 (GSC strain 4245); experiment: In vitro antibacterial activity (MIC assay), broth microdilution; format: cell-based; details: Escherichia coli
Protocol: (§1) Minimal inhibitory concentration (MIC) has been an indicator of in vitro antibacterial activity widely used in the art. The in vitro antibacterial activity of the compounds was determined by the broth microdilution method described by the National Committee for Clinical Laboratory Standards (NCCLS) in the NCCLS Document M7-A5, Vol. 20, No. 2, “Methods for Dilution Antimicrobial Susceptibility Test for Bacteria that Grow Aerobically—Fifth Edition”, which is incorporated herein by reference.
(§2) In this method, an aliquot of test compound from an 11-point series of 2-fold serial dilutions of compounds in 100% DMSO was added to wells in microdilution plates. The test organisms were prepared by adjusting the turbidity of actively growing broth cultures so that the final concentration of test organism after addition to wells with or without compounds was approximately 5×10^5 CFU/mL.
(§3) Following inoculation of the microdilution plates, the plates were incubated at 35° C. for 16-24 h and then scored for bacterial growth. […] The amount of growth in the wells containing the test compound was compared with the amount of growth in the growth-control wells (no test compound used) in each plate, and with the amount of growth in the wells containing control compounds (such as ciprofloxacin). Compounds of the present invention were tested against several bacterial strains. The MIC values (in μg/mL) are presented in Table 1 for Gram-negative (E. coli KL-16 (GSC strain 4245); data marked as (*) was obtained with E. coli ATCC25922) and Gram-positive bacteria (S. aureus ATCC13709; S. pneumoniae ATCC49619).

S. aureus ATCC13709 = experiment: as above; format: cell-based; details: Staphylococcus aureus, ATCC13709; read-out: S. aureus ATCC13709 MIC
Protocol: as §1, §2, §3

S. pneumoniae ATCC49619 = experiment: as above; format: cell-based; details: Streptococcus pneumoniae, ATCC49619; read-out: S. pneumoniae ATCC49619 MIC
Protocol: as §1, §2, §3

E. coli DNA gyrase = target: T1, E. coli DNA gyrase (Escherichia coli, UniProt P0AES4+P0AES6); experiment: DNA gyrase inhibition assay (supercoiling); format: biochemical; details: E. coli DNA gyrase supercoiling, visual inspection of gels; read-out: DNA Gyrase IC50 (converted)
T1 construct: purchased John Innes Enterprises Ltd. (John Innes Centre, UK)
T1 sequence (P0AES4 whole entry, one chain of several): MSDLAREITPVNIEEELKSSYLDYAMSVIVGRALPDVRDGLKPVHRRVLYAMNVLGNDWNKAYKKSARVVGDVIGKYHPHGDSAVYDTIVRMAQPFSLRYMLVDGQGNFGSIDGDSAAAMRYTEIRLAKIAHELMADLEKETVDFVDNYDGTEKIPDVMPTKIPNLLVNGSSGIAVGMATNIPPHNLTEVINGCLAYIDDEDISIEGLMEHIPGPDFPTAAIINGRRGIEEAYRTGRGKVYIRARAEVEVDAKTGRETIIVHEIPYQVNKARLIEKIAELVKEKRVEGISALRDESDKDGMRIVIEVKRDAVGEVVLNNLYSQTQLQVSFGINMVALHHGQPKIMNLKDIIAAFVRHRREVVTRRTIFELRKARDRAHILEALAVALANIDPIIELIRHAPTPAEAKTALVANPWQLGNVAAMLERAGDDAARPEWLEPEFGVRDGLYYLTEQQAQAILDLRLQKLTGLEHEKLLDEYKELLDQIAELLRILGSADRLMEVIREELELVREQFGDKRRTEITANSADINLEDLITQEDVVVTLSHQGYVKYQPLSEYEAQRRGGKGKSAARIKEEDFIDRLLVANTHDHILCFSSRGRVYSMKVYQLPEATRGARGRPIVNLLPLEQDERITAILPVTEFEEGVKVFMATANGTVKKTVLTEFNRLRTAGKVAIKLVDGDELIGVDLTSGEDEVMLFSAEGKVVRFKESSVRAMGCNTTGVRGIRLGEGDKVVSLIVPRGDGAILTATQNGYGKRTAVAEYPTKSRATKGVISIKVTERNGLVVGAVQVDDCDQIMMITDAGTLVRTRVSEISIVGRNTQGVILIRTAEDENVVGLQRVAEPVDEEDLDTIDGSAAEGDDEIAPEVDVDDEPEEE
Protocol: Inhibition of the supercoiling activity of E. coli DNA gyrase was determined using enzymes, buffers and substrates received from John Innes Enterprises Ltd. (John Innes Centre, UK). The reactions were performed according to the manufacturer's directions, with the following modifications.
DNA supercoiling reactions were carried out in a total reaction volume of 20 μL containing 250 ng of relaxed pBR322, 35 mM Tris-HCl (pH 7.5), 24 mM KCl, 4 mM MgCl2, 2 mM dithiothreitol, 1.8 mM spermidine, 1 mM ATP, 6.5% glycerol and 100 μg/mL albumin. Compounds diluted in 10% DMSO were added to the reaction mixture to reach a final concentration of 0.5% DMSO. Enzyme was diluted to […] in a solution of 50 mM Tris-HCl (pH 7.5), 100 mM KCl, 2 mM dithiothreitol, 1 mM EDTA, and 50% glycerol. Diluted enzyme (0.2 unit) was added to each reaction.
The reactions were incubated at 37° C. for 30 min. The reactions were then cooled to 0° C., followed by addition of 3 μL of 40% glycerol, 100 mM Tris-HCl (pH 7.5), 50 mM EDTA, 0.5% SDS and 0.1% bromophenol blue. Samples were separated on 1.0% agarose gels. Gels were stained with Ethidium bromide and photographed with a Stratagene Eagle Eye II.

SMILES | MIC [1] | MIC (S. aureus ATCC13709) | MIC (S. pneumoniae ATCC49619) | IC50 (E. coli DNA gyrase)
COc1ccc2nccc(-n3cc4c(n3)CCC(NC/C=C/c3cccnc3)C4)c2n1 (centres unmarked) [Example 47, [2-(6-Methoxy-[1,5]naphthyridin-4-yl)-4,5,6,7-tetrahydro-2H-indazol-5-yl]-(3-pyridin-3-yl-allyl)-amine] | 128 µg/mL (≈ 310 µM) | 1 µg/mL (≈ 2.42 µM) | 4 µg/mL (≈ 9.7 µM) | 4.85 µM
COc1ccc2nccc(-n3cc4c(n3)CCC(NC/C=C/c3ccc(F)cc3)C4)c2c1 (centres unmarked) [Example 57, [3-(4-Fluoro-phenyl)-allyl]-[2-(6-methoxy-quinolin-4-yl)-4,5,6,7-tetrahydro-2H-indazol-5-yl]-amine] | 64 µg/mL (≈ 149 µM) | 1 µg/mL (≈ 2.33 µM) | 2 µg/mL (≈ 4.67 µM) | 4.67 µM
COc1ccc2nccc(-n3cc4c(n3)CCC(NC(=O)/C=C/c3cc(F)cc(F)c3)C4)c2n1 (centres unmarked) [Example 11, 3-(3,5-Difluoro-phenyl)-N-[2-(6-methoxy-[1,5]naphthyridin-4-yl)-4,5,6,7-tetrahydro-2H-indazol-5-yl]-acrylamide] | > 128 µg/mL | < 0.125 µg/mL | 16 µg/mL (≈ 34.7 µM) | 4.33 µM
COc1ccc2nccc(-n3cc4c(n3)CCC(NC(=O)c3cc5cc(C)ccc5[nH]3)C4)c2c1 (centres unmarked) [Example 75, 5-Methyl-1H-indole-2-carboxylic acid [2-(6-methoxy-quinolin-4-yl)-4,5,6,7-tetrahydro-2H-indazol-5-yl]-amide] | > 128 µg/mL | 4 µg/mL (≈ 8.86 µM) | 16 µg/mL (≈ 35.4 µM) | > 35.4 µM
COc1ccc2nccc(-n3cc4c(n3)CCC(NCc3ccc(N5CCCC5)cc3)C4)c2n1 (centres unmarked) [Example 87, [2-(6-Methoxy-[1,5]naphthyridin-4-yl)-4,5,6,7-tetrahydro-2H-indazol-5-yl]-(4-pyrrolidin-1-yl-benzyl)-amine] | 64 µg/mL (≈ 141 µM) | 2 µg/mL (≈ 4.4 µM) | 8 µg/mL (≈ 17.6 µM) | 4.4 µM
COc1ccc2nccc(-n3cc4c(n3)CCC(NC(=O)C(=O)c3cc5ccccc5[nH]3)C4)c2c1 (centres unmarked) [Example 26, 2-(1H-Indol-2-yl)-N-[2-(6-methoxy-quinolin-4-yl)-4,5,6,7-tetrahydro-2H-indazol-5-yl]-2-oxo-acetamide] | > 128 µg/mL | 0.25 µg/mL (≈ 0.537 µM) | 2 µg/mL (≈ 4.3 µM) | > 34.4 µM
COc1ccc2nccc(-n3cc4c(n3)CCC(NC(=O)/C=C/c3ccccn3)C4)c2n1 (centres unmarked) [Example 95, N-[2-(6-Methoxy-[1,5]naphthyridin-4-yl)-4,5,6,7-tetrahydro-2H-indazol-5-yl]-3-pyridin-2-yl-acrylamide] | > 128 µg/mL | 2 µg/mL (≈ 4.69 µM) | 8 µg/mL (≈ 18.8 µM) | > 37.5 µM
COc1ccc2nccc(-n3cc4c(n3)CCC(N(Cc3ccccc3)Cc3ccc5c(c3)NC(=O)CS5)C4)c2n1 (centres unmarked) [Example 66, 6-({Benzyl-[2-(6-methoxy-[1,5]naphthyridin-4-yl)-4,5,6,7-tetrahydro-2H-indazol-5-yl]amino}-methyl)-4H-benzo[1,4]thiazin-3-one] | > 128 µg/mL | 8 µg/mL (≈ 14.2 µM) | > 128 µg/mL | 3.55 µM
COc1ccc2nccc(-n3cc4c(n3)CCC(NC(=O)c3cc5c(F)cc(F)cc5[nH]3)C4)c2c1 (centres unmarked) [Example 22, 4,6-Difluoro-1H-indole-2-carboxylic acid [2-(6-methoxy-quinolin-4-yl)-4,5,6,7-tetrahydro-2H-indazol-5-yl]-amide] | > 128 µg/mL | 0.5 µg/mL (≈ 1.06 µM) | 8 µg/mL (≈ 16.9 µM) | 1.06 µM
COc1ccc2nccc(-n3cc4c(n3)CCC(NCc3cc5c(cc3Cl)OCCO5)C4)c2n1 (centres unmarked) [Example 104, (7-Chloro-2,3-dihydro-benzo[1,4]dioxin-6-ylmethyl)-[2-(6-methoxy-[1,5]naphthyridin-4-yl)-4,5,6,7-tetrahydro-2H-indazol-5-yl]-amine] | 8 µg/mL (≈ 16.7 µM) | 0.125 µg/mL (≈ 0.262 µM) | 1 µg/mL (≈ 2.09 µM) | 1.05 µM
O=C1CSc2cc(F)c(C(=O)NC3CCc4nn(-c5cccc6ccccc56)cc4C3)cc2N1 (centres unmarked) [Example 33, 7-Fluoro-3-oxo-3,4-dihydro-2H-benzo[1,4]thiazine-6-carboxylic acid (2-naphthalen-1-yl-4,5,6,7-tetrahydro-2H-indazol-5-yl)-amide] | > 128 µg/mL | 1 µg/mL (≈ 2.12 µM) | 8 µg/mL (≈ 16.9 µM) | 4.23 µM
COc1ccc2nccc(-n3cc4c(n3)CCC(NCCCc3ccccc3)C4)c2n1 (centres unmarked) [Example 45, [2-(6-Methoxy-[1,5]naphthyridin-4-yl)-4,5,6,7-tetrahydro-2H-indazol-5-yl]-(3-phenyl-propyl)-amine] | 128 µg/mL (≈ 310 µM) | 0.25 µg/mL (≈ 0.605 µM) | < 0.125 µg/mL | 1.93 µM
COc1ccc2nccc(-n3cc4c(n3)CCC(NC(=O)c3ccc5c(c3)N(C)C(=O)CS5)C4)c2n1 (centres unmarked) [Example 69, 4-Methyl-3-oxo-3,4-dihydro-2H-benzo[1,4]thiazine-6-carboxylic acid [2-(6-methoxy-[1,5]naphthyridin-4-yl)-4,5,6,7-tetrahydro-2H-indazol-5-yl]-amide] | > 128 µg/mL | 4 µg/mL (≈ 7.99 µM) | 64 µg/mL (≈ 128 µM) | > 7.99 µM
COc1ccc2nccc(-n3cc4c(n3)CCC(NCCCc3ccc(Cl)c(Cl)c3)C4)c2n1 (centres unmarked) [Example 48, [3-(3,4-Dichloro-phenyl)-propyl]-[2-(6-methoxy-[1,5]naphthyridin-4-yl)-4,5,6,7-tetrahydro-2H-indazol-5-yl]-amine] | 32 µg/mL (≈ 66.3 µM) | 0.25 µg/mL (≈ 0.518 µM) | 1 µg/mL (≈ 2.07 µM) | > 66.3 µM
COc1ccc2nccc(-n3cc4c(n3)CCC(NC(=O)c3nc5ccccc5[nH]3)C4)c2c1 (centres unmarked) [Example 71, 1H-Benzoimidazole-2-carboxylic acid [2-(6-methoxy-quinolin-4-yl)-4,5,6,7-tetrahydro-2H-indazol-5-yl]-amide] | > 128 µg/mL | 2 µg/mL (≈ 4.56 µM) | 8 µg/mL (≈ 18.2 µM) | 
COc1ccc2nccc(-n3cc4c(n3)CCC(NCC(=O)Nc3ccc(Cl)c(Cl)c3)C4)c2c1 (centres unmarked) [Example 62, N-(3,4-Dichloro-phenyl)-2-[2-(6-methoxy-quinolin-4-yl)-4,5,6,7-tetrahydro-2H-indazol-5-ylamino]-acetamide] | > 128 µg/mL | 1 µg/mL (≈ 2.01 µM) | 16 µg/mL (≈ 32.2 µM) | 
COc1ccc2nccc(-n3cc4c(n3)CCC(NCC(=O)c3ccc5c(c3)NC(=O)CO5)C4)c2c1 (centres unmarked) [Example 63, 6-{2-[2-(6-Methoxy-quinolin-4-yl)-4,5,6,7-tetrahydro-2H-indazol-5-ylamino]-acetyl}-4H-benzo[1,4]oxazin-3-one] | 6 µg/mL (≈ 12.4 µM) | 0.1 µg/mL (≈ 0.207 µM) | 0.8 µg/mL (≈ 1.65 µM) | 
COc1ccc2nccc(-n3cc4c(n3)CCC(NC(=O)c3cc5c(cc3F)OCCO5)C4)c2n1 (centres unmarked) [Example 2, 7-Fluoro-2,3-dihydro-benzo[1,4]dioxine-6-carboxylic acid [2-(6-methoxy-[1,5]naphthyridin-4-yl)-4,5,6,7-tetrahydro-2H-indazol-5-yl]-amide] | > 128 µg/mL | 0.5 µg/mL (≈ 1.05 µM) | 8 µg/mL (≈ 16.8 µM) | 
COc1ccc2nccc(-n3cc4c(n3)CCC(NCC(=O)Nc3cccc(Cl)c3)C4)c2n1 (centres unmarked) [Example 123, N-(3-Chloro-phenyl)-2-[2-(6-methoxy-[1,5]naphthyridin-4-yl)-4,5,6,7-tetrahydro-2H-indazol-5-ylamino]-acetamide] | > 128 µg/mL | 1 µg/mL (≈ 2.16 µM) | > 128 µg/mL | 
COc1ccc2nccc(-n3cc4c(n3)CCC(NCC(=O)Nc3ccccc3)C4)c2n1 (centres unmarked) [Example 59, 2-[2-(6-Methoxy-[1,5]naphthyridin-4-yl)-4,5,6,7-tetrahydro-2H-indazol-5-ylamino]-N-phenyl-acetamide] | 128 µg/mL (≈ 299 µM) | 1 µg/mL (≈ 2.33 µM) | 8 µg/mL (≈ 18.7 µM) | 
